Values of other authors as cited in PubChem BioAssay AID1259409 (Chemical Carcinogenesis Research Information System (CCRIS), 2018).

Tested on: rodent chemically induced tumor inhibition, incidence and multiplicity
Assay: CCRIS tumor inhibitor studies
Conditions: Route [Inhibitor]: ORAL, Promoter: NONE USED

Q: For `CC1=C(/C=C/C(C)=C/C=C/C(C)=C\C(=O)O)C(C)(C)CCC1`, which “tumour outcome (control, treated, inhibition, significance)” value (Carcinogen: N-METHYL-N-NITROSOUREA, 684-93-5, Dose [Inhibitor]: 128 MG/KG DIET DAILY FOR 55 WK STARTING 1 WK AFTER LAST CARCINOGEN EXPOSURE (STUDY DURATION: 65 WK), Species: HAMSTER, Strain/Sex: SYRIAN/MALE, Target Tissue: Type of Lesion: TRACHEA: TUMOR, Dose [Carcinogen]: 1% FOR 7 SECONDS 2/WK FOR 9 WK) is on record?
A: Its value is 30/37 (81%), 26/34 (76%), 6%, not significant.

Q: And the “tumour outcome (control, treated, inhibition, significance)” value (Carcinogen: N-METHYL-N-NITROSOUREA, 684-93-5, Dose [Inhibitor]: 172 MG/KG DIET DAILY FOR 55 WK STARTING 1 WK AFTER LAST CARCINOGEN EXPOSURE (STUDY DURATION: 67.5 WK), Species: HAMSTER, Strain/Sex: SYRIAN/MALE, Target Tissue: Type of Lesion: TRACHEA: TUMORS, Dose [Carcinogen]: 1% FOR 7 SECONDS 2/WK FOR 11.5 WK)?
A: Its value is 24/40 (60%), 24/40 (60%), 0%, not significant.

Q: What about the “tumour outcome (control, treated, inhibition, significance)” value (Carcinogen: N-METHYL-N-NITROSOUREA, 684-93-5, Dose [Inhibitor]: 240 MG/KG OF DIET DAILY STARTING 5 D AFTER FINAL CARCINOGEN TREATMENT AND CONTINUING THROUGH END OF STUDY (STUDY DURATIO, Species: RAT, Strain/Sex: F344/MALE, Target Tissue: Type of Lesion: COLON: INVASIVE TUBULOPAPILLARY ADENOCARCINOMA, Dose [Carcinogen]: 0.5 MG 2/WK FOR 8 WK) of the same compound?
A: The value was 33%, 27%, 18%, not significant.

Q: What about the “tumour outcome (control, treated, inhibition, significance)” value (Carcinogen: N-METHYL-N-NITROSOUREA, 684-93-5, Dose [Inhibitor]: 240 MG/KG OF DIET DAILY STARTING 5 D AFTER FINAL CARCINOGEN TREATMENT AND CONTINUING THROUGH END OF STUDY (STUDY DURATIO, Species: RAT, Strain/Sex: F344/MALE, Target Tissue: Type of Lesion: COLON: INVASIVE TUBULOPAPILLARY ADENOCARCINOMA, Dose [Carcinogen]: 1 MG 2/WK FOR 8 WK) of the same compound?
A: The value was 80%, 90%, -13%, not significant.

Q: What about the “tumour outcome (control, treated, inhibition, significance)” value (Carcinogen: N-METHYL-N-NITROSOUREA, 684-93-5, Dose [Inhibitor]: 240 MG/KG OF DIET DAILY STARTING 5 D AFTER FINAL CARCINOGEN TREATMENT AND CONTINUING THROUGH END OF STUDY (STUDY DURATIO, Species: RAT, Strain/Sex: F344/MALE, Target Tissue: Type of Lesion: COLON: INVASIVE TUBULOPAPILLARY ADENOCARCINOMA, Dose [Carcinogen]: 2 MG 2/WK FOR 8 WK) of the same compound?
A: The value was 95%, 100%, -5%, not significant.

Q: What about the “tumour outcome (control, treated, inhibition, significance)” value (Carcinogen: N-NITROBIS(2-OXOPROPYL)AMINE, 60559-38-4, Dose [Inhibitor]: 0.4 MMOL/KG/D IN DIET STARTING 1 WK AFTER CARCINOGEN TREATMENT AND CONTINUING THROUGH THE END OF THE STUDY (STUDY DURATI, Species: HAMSTER, Strain/Sex: SYRIAN/FEMALE, Target Tissue: Type of Lesion: LIVER: BENIGN TUMOR, Dose [Carcinogen]: 40 MG/KG BW ONCE) of the same compound?
A: The value was 4/20 (20%), 10/15 (67%), -235%, p<0.05.

Q: And the “tumour outcome (control, treated, inhibition, significance)” value (Carcinogen: N-NITROBIS(2-OXOPROPYL)AMINE, 60559-38-4, Dose [Inhibitor]: 0.4 MMOL/KG/D IN DIET STARTING 1 WK AFTER CARCINOGEN TREATMENT AND CONTINUING THROUGH THE END OF THE STUDY (STUDY DURATI, Species: HAMSTER, Strain/Sex: SYRIAN/FEMALE, Target Tissue: Type of Lesion: PANCREAS: DUCTULAR ADENOMA, Dose [Carcinogen]: 40 MG/KG BW ONCE)?
A: Its value is 12/20 (60%), 7/14 (50%), 17%, not significant.

Q: What about the “tumour outcome (control, treated, inhibition, significance)” value (Carcinogen: N-NITROBIS(2-OXOPROPYL)AMINE, 60559-38-4, Dose [Inhibitor]: 0.4 MMOL/KG/D IN DIET STARTING 1 WK AFTER CARCINOGEN TREATMENT AND CONTINUING THROUGH THE END OF THE STUDY (STUDY DURATI, Species: HAMSTER, Strain/Sex: SYRIAN/FEMALE, Target Tissue: Type of Lesion: PANCREAS: DUCTULAR CARCINOMA, Dose [Carcinogen]: 40 MG/KG BW ONCE) of the same compound?
A: Its value is 6/20 (30%), 9/14 (64%), -113%, not significant.

Q: What about the “tumour outcome (control, treated, inhibition, significance)” value (Carcinogen: N-NITROBIS(2-OXOPROPYL)AMINE, 60559-38-4, Dose [Inhibitor]: 0.4 MMOL/KG/D IN DIET STARTING 1 WK AFTER CARCINOGEN TREATMENT AND CONTINUING THROUGH THE END OF THE STUDY (STUDY DURATI, Species: HAMSTER, Strain/Sex: SYRIAN/MALE, Target Tissue: Type of Lesion: PANCREAS: DUCTULAR CARCINOMA, Dose [Carcinogen]: 40 MG/KG BW ONCE) of the same compound?
A: The value was 5/24 (21%), 9/24 (38%), -81%, not significant.

Q: And the “tumour outcome (control, treated, inhibition, significance)” value (Carcinogen: N-NITROBIS(2-OXOPROPYL)AMINE, 60559-38-4, Dose [Inhibitor]: 0.4 OR 0.8 MMOL/KG DIET DAILY STARTING 1 WK AFTER CARCINOGEN TREATMENT AND CONTINUING THROUGH THE END OF THE STUDY (STUD, Species: HAMSTER, Strain/Sex: SYRIAN/FEMALE, Target Tissue: Type of Lesion: LIVER: BENIGN TUMOR, Dose [Carcinogen]: 40 MG/KG BW ONCE)?
A: The value was 4/20 (20%), 10/15 (67%), -235%, p<0.05.

Q: And the “tumour outcome (control, treated, inhibition, significance)” value (Carcinogen: N-NITROBIS(2-OXOPROPYL)AMINE, 60559-38-4, Dose [Inhibitor]: 0.4 OR 0.8 MMOL/KG DIET DAILY STARTING 1 WK AFTER CARCINOGEN TREATMENT AND CONTINUING THROUGH THE END OF THE STUDY (STUD, Species: HAMSTER, Strain/Sex: SYRIAN/FEMALE, Target Tissue: Type of Lesion: PANCREAS: DUCTULAR ADENOMA, Dose [Carcinogen]: 10 MG/KG BW ONCE)?
A: Its value is 5/23 (22%), 9/23 (39%), -77%, not significant.
